Legend:
[1] = biological target: T1, Recombinant dengue 2 virus envelope protein (Dengue virus type 2, UniProt P27914); assay: Envelope protein binding assay with competitive antagonists, Vero cells, flow cytometry; assay type: cell-based
T1 construct: extending from the start codon to the beginning of the transmembrane region (nucleotides 1 to 1272); CD5 signal peptide (N); made in house; host or cells: COS-7 cells (transfected; purified from cell lysate on protein A)
Description: Panels A-D: Competitive antagonists. Recombinant dengue 2 virus envelope protein was co-incubated with Vero cells in the presence of potential competitive antagonists, and the degree of binding was quantitated by flow cytometry. Abscissa: Competitive antagonist. Binding of envelope protein without antagonist is indicated by dengue Env column. Background binding (cells incubated with normal human IgG instead of envelope protein) is indicated by Control IgG column. Ordinate: Median fluorescence intensity derived from flow cytometry histograms for each sample.
Vero cells were detached from their culture surface without proteases (incubated in cation-free phosphate buffered saline (PBS, Gibco-BRL) with 5 mM EDTA, 10 min. 37° C., washed, and incubated with envelope protein (10 μg/ml) and competitive antagonists (10 μg/ml unless otherwise indicated) in cation containing PBS with 1% normal goat serum (Gibco-BRL), for 1 hour at 4° C. Cells were washed two times, incubated with R-phycoerythrin labeled Fab2 fragment of affinity purified goat antibody to human IgG Fc (5 μg/ml, Jackson Labs.) for 1 hour at 4° C., and washed two times. Cellular fluorescence and forward angle light scatter were quantitated by flow cytometry (FACScan, Becton Dickinson). A minimum of 10,000 cells was assessed from each treatment group. Data were accumulated only for viable cells; non-viable cells were excluded from analysis on the basis of low forward angle light scatter. Results were expressed as frequency histograms of fluorescence per cell. A value for median fluorescence intensity was derived from the fluorescence frequency histograms for each sample, and used to compare fluorescence between samples. In each experiment, controls consisted of untreated cells, cells incubated with only the secondary fluorochrome-labeled antibody, and cells incubated with normal human IgG followed by the secondary fluorochrome-labeled antibody.
Chondroitin sulfate (CS) from bovine trachea, dermatan sulfate (DS) from bovine mucosa, heparan sulfate (HS) from bovine kidney, heparin from bovine lung, keratan sulfate (KS) from bovine cornea, and dextran sulfate (DexS) (MW 5×105) were obtained from Sigma Chemical Co. and used at a concentration of 10 μg/ml.

[2] = test system: dengue 2 New Guinea C strain virus; assay: Infectivity assay, dengue virus infection of Vero cells (cytopathic effect); assay type: cell-based, dengue 2 virus
[3] = test system: Vero cells
[4] = test system: Human umbilical vein endothelial cells

Molecule: sulfated lactobionic acid
- inhibition of envelope protein binding by polyanionic compounds [1]: inhibited envelope protein binding

Molecule: dextran sulfate [DexS]
- inhibition of envelope protein binding to Vero cells (competitive antagonist) ([1]; antagonist 10 μg/ml): no effect
- inhibition of envelope protein binding to Vero cells (competitive antagonist) ([1]; concentrations up to 30 μg/ml): no inhibitory effect

Molecule: Cc1ccc(C(=O)Nc2ccc(S(=O)(=O)O)c3cc(S(=O)(=O)O)cc(S(=O)(=O)O)c23)cc1NC(=O)c1cccc(NC(=O)Nc2cccc(C(=O)Nc3cc(C(=O)Nc4ccc(S(=O)(=O)O)c5cc(S(=O)(=O)O)cc(S(=O)(=O)O)c45)ccc3C)c2)c1 [Suramin]
- inhibition of envelope protein binding by polyanionic compounds [1]: inhibited envelope protein binding
- effect on infectious titer ([2]; Vero cells incubated with compound, washed before exposure to virus): no effect on infectious titer
- prevention of dengue virus infection of Vero cells ([2]; high doses (0-2.5 mg/ml), compound incubated with virus): completely protective at high doses

Molecule: [Na+].[O-][Cl+2]([O-])[O-] [sodium chlorate]
- envelope protein binding after sulfation inhibition [3]: complete loss of binding
- envelope protein binding after sulfation inhibition [4]: dose dependent partial inhibition of binding

— patent US6197568A (priority 1998, dated 2001)
